Data as given in the supplement of paper PMC10307832.

Experiments:
Test in all cases: relative viability (nuclei count vs DMSO), 5 days (fraction); higher = more cells survive
BEN = test system: BEN
Procedure, shortened: (§1)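 Dosing by pin tool came one day after lung cancer cell lines were seeded in 1536-well plates, using either one drug or a fixed anchor-drug dose plus five library-drug doses (not always all listed) in √10 steps. After 5 days, nuclei were counted on 4× images. Relative viability is treated-well nuclei count divided by vehicle-well nuclei count, and values are medians of duplicate plates.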

LK-2 = test system: LK-2
Procedure, shortened: as §1

SW 1573 = test system: SW 1573
Procedure, shortened: as §1

ChaGo-K-1 = test system: ChaGo-K-1
Procedure, shortened: as §1

HCC-78 = test system: HCC-78
Procedure, shortened: as §1

EKVX = test system: EKVX
Procedure, shortened: as §1

NCI-H2087 = test system: NCI-H2087
Procedure, shortened: as §1

HCC-827 = test system: HCC-827
Procedure, shortened: as §1

EPLC-272H = test system: EPLC-272H
Procedure, shortened: as §1

NCI-H358 = test system: NCI-H358
Procedure, shortened: as §1

LU99A = test system: LU99A
Procedure, shortened: as §1

NCI-H727 = test system: NCI-H727
Procedure, shortened: as §1

NCI-H1944 = test system: NCI-H1944
Procedure, shortened: as §1

LOU-NH91 = test system: LOU-NH91
Procedure, shortened: as §1

EMC-BAC-2 = test system: EMC-BAC-2
Procedure, shortened: as §1

RERF-LC-KJ = test system: RERF-LC-KJ
Procedure, shortened: as §1

NCI-H1650 = test system: NCI-H1650
Procedure, shortened: as §1

COR-L 105 = test system: COR-L 105
Procedure, shortened: as §1

NCI-H1734 = test system: NCI-H1734
Procedure, shortened: as §1

LCLC-97TM1 = test system: LCLC-97TM1
Procedure, shortened: as §1

SK-MES-1 = test system: SK-MES-1
Procedure, shortened: as §1

NCI-H2126 = test system: NCI-H2126
Procedure, shortened: as §1

O=c1[nH]c2ccccc2n1C1CCN(CCCC(c2ccc(F)cc2)c2ccc(F)cc2)CC1 [Pimozide] + O=C(CCCCCCC(=O)Nc1ccccc1)NO [Vorinostat] (partner 1 µM)
relative viability (BEN; first compound 0.08 µM): 0.558
relative viability (BEN; first compound 0.253 µM): 0.579
relative viability (BEN; first compound 0.8 µM): 0.607
relative viability (BEN; first compound 2.53 µM): 0.601
relative viability (BEN; first compound 8 µM): 0.603
relative viability (LK-2; first compound 0.08 µM): 0.2
relative viability (LK-2; first compound 0.253 µM): 0.342
relative viability (LK-2; first compound 0.8 µM): 0.254
relative viability (LK-2; first compound 2.53 µM): 0.267
relative viability (LK-2; first compound 8 µM): 0.395
relative viability (SW 1573; first compound 0.08 µM): 0.83
relative viability (SW 1573; first compound 0.253 µM): 0.63
relative viability (SW 1573; first compound 0.8 µM): 0.579
relative viability (SW 1573; first compound 2.53 µM): 0.323
relative viability (SW 1573; first compound 8 µM): 0.33
relative viability (ChaGo-K-1; first compound 0.08 µM): 0.726
relative viability (ChaGo-K-1; first compound 0.253 µM): 0.668
relative viability (ChaGo-K-1; first compound 0.8 µM): 0.794
relative viability (ChaGo-K-1; first compound 2.53 µM): 0.841
relative viability (ChaGo-K-1; first compound 8 µM): 0.758
relative viability (HCC-78; first compound 0.08 µM): 0.371
relative viability (HCC-78; first compound 0.8 µM): 0.369
relative viability (HCC-78; first compound 2.53 µM): 0.453
relative viability (HCC-78; first compound 8 µM): 0.447
relative viability (EKVX; first compound 0.253 µM): 0.712
relative viability (EKVX; first compound 0.8 µM): 0.601
relative viability (EKVX; first compound 2.53 µM): 0.812
relative viability (EKVX; first compound 8 µM): 0.641
relative viability (NCI-H2087; first compound 0.08 µM): 0.802
relative viability (NCI-H2087; first compound 0.253 µM): 0.597
relative viability (NCI-H2087; first compound 2.53 µM): 0.615
relative viability (NCI-H2087; first compound 8 µM): 0.774
relative viability (HCC-827; first compound 0.253 µM): 0.791
relative viability (HCC-827; first compound 0.8 µM): 0.738
relative viability (HCC-827; first compound 2.53 µM): 0.785
relative viability (HCC-827; first compound 8 µM): 0.843
relative viability (EPLC-272H; first compound 0.08 µM): 0.402
relative viability (EPLC-272H; first compound 0.253 µM): 0.453
relative viability (EPLC-272H; first compound 0.8 µM): 0.417
relative viability (EPLC-272H; first compound 2.53 µM): 0.418
relative viability (EPLC-272H; first compound 8 µM): 0.307
relative viability (NCI-H358; first compound 0.08 µM): 0.697
relative viability (NCI-H358; first compound 0.253 µM): 0.685
relative viability (NCI-H358; first compound 0.8 µM): 0.639
relative viability (NCI-H358; first compound 2.53 µM): 0.906
relative viability (NCI-H358; first compound 8 µM): 0.679
relative viability (LU99A; first compound 0.08 µM): 0.595
relative viability (LU99A; first compound 0.8 µM): 0.418
relative viability (LU99A; first compound 2.53 µM): 0.5
relative viability (LU99A; first compound 8 µM): 0.537
relative viability (NCI-H727; first compound 0.08 µM): 1.2
relative viability (NCI-H727; first compound 0.253 µM): 1.13
relative viability (NCI-H727; first compound 0.8 µM): 1.11
relative viability (NCI-H727; first compound 2.53 µM): 1.15
relative viability (NCI-H727; first compound 8 µM): 1.17
relative viability (NCI-H1944; first compound 0.08 µM): 0.563
relative viability (NCI-H1944; first compound 2.53 µM): 0.636
relative viability (NCI-H1944; first compound 8 µM): 0.47
relative viability (LOU-NH91; first compound 0.08 µM): 0.741
relative viability (LOU-NH91; first compound 0.253 µM): 0.883
relative viability (LOU-NH91; first compound 0.8 µM): 0.852
relative viability (LOU-NH91; first compound 2.53 µM): 0.98
relative viability (LOU-NH91; first compound 8 µM): 0.872
relative viability (EMC-BAC-2; first compound 0.08 µM): 0.433
relative viability (EMC-BAC-2; first compound 0.253 µM): 0.45
relative viability (EMC-BAC-2; first compound 0.8 µM): 0.384
relative viability (EMC-BAC-2; first compound 2.53 µM): 0.451
relative viability (EMC-BAC-2; first compound 8 µM): 0.456
relative viability (RERF-LC-KJ; first compound 0.08 µM): 0.616
relative viability (RERF-LC-KJ; first compound 0.253 µM): 0.677
relative viability (RERF-LC-KJ; first compound 0.8 µM): 0.612
relative viability (RERF-LC-KJ; first compound 2.53 µM): 0.463
relative viability (RERF-LC-KJ; first compound 8 µM): 0.613
relative viability (NCI-H1650; first compound 0.08 µM): 0.449
relative viability (NCI-H1650; first compound 0.253 µM): 0.571
relative viability (NCI-H1650; first compound 0.8 µM): 0.687
relative viability (NCI-H1650; first compound 2.53 µM): 0.591
relative viability (NCI-H1650; first compound 8 µM): 0.546
relative viability (COR-L 105; first compound 0.08 µM): 0.702
relative viability (COR-L 105; first compound 0.253 µM): 0.767
relative viability (COR-L 105; first compound 0.8 µM): 0.821
relative viability (COR-L 105; first compound 2.53 µM): 0.833
relative viability (COR-L 105; first compound 8 µM): 0.751
relative viability (NCI-H1734; first compound 0.08 µM): 0.841
relative viability (NCI-H1734; first compound 0.253 µM): 0.739
relative viability (NCI-H1734; first compound 0.8 µM): 0.569
relative viability (NCI-H1734; first compound 2.53 µM): 0.763
relative viability (NCI-H1734; first compound 8 µM): 0.847
relative viability (LCLC-97TM1; first compound 0.08 µM): 0.753
relative viability (LCLC-97TM1; first compound 0.253 µM): 0.738
relative viability (LCLC-97TM1; first compound 0.8 µM): 0.455
relative viability (LCLC-97TM1; first compound 2.53 µM): 0.526
relative viability (LCLC-97TM1; first compound 8 µM): 0.584
relative viability (SK-MES-1; first compound 0.08 µM): 1.13
relative viability (SK-MES-1; first compound 0.253 µM): 1.02
relative viability (SK-MES-1; first compound 0.8 µM): 0.991
relative viability (SK-MES-1; first compound 2.53 µM): 1.06
relative viability (SK-MES-1; first compound 8 µM): 0.996
relative viability (NCI-H2126; first compound 0.08 µM): 0.704
relative viability (NCI-H2126; first compound 0.253 µM): 0.818
relative viability (NCI-H2126; first compound 0.8 µM): 0.782
relative viability (NCI-H2126; first compound 2.53 µM): 0.785
relative viability (NCI-H2126; first compound 8 µM): 0.868
